Patent EP0326331B1, “Substituted quinolines and cinnolines” (Dow AgroSciences LLC, priority 1988, dated 1989)

Key:
Assay type in all cases: in vivo
[1] = test system: Erysiphe graminis tritici (powdery mildew); assay: Test 1 greenhouse foliar spray screen, powdery mildew on wheat; details: disease control rating, foliar spray on wheat, 400 ppm (+++ at 100 ppm)
[2] = test system: Pyricularia oryzae (rice blast); assay: whole plant or invertebrate; details: for RICE BLAST: disease control rating, foliar spray on rice, 400 ppm (+++ at 100 ppm)
[3] = test system: Puccinia recondita tritici (leaf rust); assay: Test 1 greenhouse foliar spray screen, leaf rust on wheat; details: disease control rating, foliar spray on wheat, 400 ppm (+++ at 100 ppm)
[4] = test system: Botrytis cinerea (gray mold); assay: Test 1 greenhouse foliar spray screen, gray mold on grape berries; details: disease control rating, spray on grape berries, 400 ppm (+++ at 100 ppm)
[5] = test system: Pseudoperonospora cubensis (downy mildew); assay: Test 1 greenhouse foliar spray screen, downy mildew on squash; details: disease control rating, foliar spray on squash, 400 ppm (+++ at 100 ppm)
[6] = test system: Cercospora beticola (leaf spot); assay: Test 1 greenhouse foliar spray screen, leaf spot on sugar beet; details: disease control rating, foliar spray on sugar beet, 400 ppm (+++ at 100 ppm)
[7] = test system: Venturia inaequalis (apple scab); assay: Test 1 greenhouse foliar spray screen, apple scab on apple seedling; details: disease control rating, foliar spray on apple seedling, 400 ppm (+++ at 100 ppm)
[8] = test system: Septoria tritici (leaf blotch); assay: Test 1 greenhouse foliar spray screen, leaf blotch on wheat; details: disease control rating, foliar spray on wheat, 400 ppm (+++ at 100 ppm)
[9] = test system: southern armyworm (Spodopetra eridania Cramer); assay: Mite/insect screen, SAW; details: percent mortality, SAW; for mortality at 200 ppm / mortality at 400 ppm: Spodoptera eridania, read-out: SAW RESULTS %; for mortality at 400 ppm: SM & MA RATE 400 PPM
In short: (§1)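 Compounds dissolved in 50:50 acetone/alcohol containing sulfonate/nonionic emulsifier blends, then diluted with water to the indicated concentrations. Leaves sprayed on both surfaces to runoff at 10 psi and dried one hour. Percent mortality scored after standard exposure periods.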

[10] = test system: Twospotted spider mites (Tetranychus urticae Koch); assay: Mite/insect screen, SM; details: for mortality at 200 ppm / mortality at 400 ppm: Tetranychus urticae, read-out: SM RESULTS %; for mortality at 400 ppm: SM & MA RATE 400 PPM; for activity as miticides: summary statement in the description
In short: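 Activity is expressed as percent mortality at the indicated spray concentrations. Plants are sprayed to runoff on upper and lower leaf surfaces with aqueous dilutions of an acetone/alcohol emulsifiable formulation, then dried for one hour.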

[11] = test system: melon aphids (Aphis gossypii Glover); assay: Mite/insect screen, MA; details: percent mortality, SAW; for mortality at 200 ppm / mortality at 400 ppm: Aphis gossypii, read-out: MA RESULTS %; for mortality at 400 ppm: SM & MA RATE 400 PPM
In short: as §1

[12] = test system: corn rootworm; assay: Mite/insect screen, CRW; details: percent mortality; for mortality at 12 ppm / mortality at 24 ppm: read-out: CRW RESULTS %; for mortality at 24 ppm: CRW RATE 24.00 PPM
In short: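 Compounds were dissolved in 50:50 acetone/alcohol containing sulfonate/nonionic emulsifier blends (23 g/L plus 13 g/L), then diluted with water to the test concentrations. Percent mortality was scored after standard exposure periods.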

[13] = percent mortality, SAW, SM & MA RATE 200 PPM

## CCN(CCc1ccc(Cl)cc1)c1ccnc2c(F)cccc12 [Example 105, N-[2-(4-chlorophenyl)ethyl]-N-ethyl-8-fluoro-4-quinolinamine]
[1]
  POWD MDEW: +++ (90-100% control at 100 ppm)
[2]
  RICE BLAST: ++ (90-100% control at 400 ppm)
[3]
  LEAF RUST: +++ (90-100% control at 100 ppm)
[4]
  GRAY MOLD: - (0-19% control at 400 ppm)
[5]
  DOWN MDEW: +++ (90-100% control at 100 ppm)
[6]
  LEAF SPOT: + (20-89% control at 400 ppm)
[7]
  APPL SCAB: - (0-19% control at 400 ppm)
[8]
  LEAF BLOT: + (20-89% control at 400 ppm)
[9]; SM & MA RATE 200 PPM
  mortality at 200 ppm: 30%
[9]
  mortality at 400 ppm: 0%
[10]; [13]
  mortality at 200 ppm: 100%
[10]; percent mortality, SAW
  mortality at 400 ppm: 0%
[10]
  activity as miticides: particularly excellent activity
[11]; SM & MA RATE 200 PPM
  mortality at 200 ppm: 80%
[11]
  mortality at 400 ppm: 50%
[12]; CRW RATE 12.00 PPM
  mortality at 12 ppm: 0%
[12]
  mortality at 24 ppm: 0%

## CN(c1ccc(F)cc1)c1ccnc2cc(Cl)ccc12 [Example 106, 7-chloro-N-(4-fluorophenyl)-N-methyl-4-quinolinamine]
[1]
  POWD MDEW: ++ (90-100% control at 400 ppm)
[2]
  RICE BLAST: + (20-89% control at 400 ppm)
[3]
  LEAF RUST: + (20-89% control at 400 ppm)
[4]
  GRAY MOLD: - (0-19% control at 400 ppm)
[5]
  DOWN MDEW: + (20-89% control at 400 ppm)
[6]
  LEAF SPOT: + (20-89% control at 400 ppm)
[7]
  APPL SCAB: - (0-19% control at 400 ppm)
[8]
  LEAF BLOT: + (20-89% control at 400 ppm)
[9]
  mortality at 400 ppm: 0%
[10]; percent mortality, SAW
  mortality at 400 ppm: 0%
[11]
  mortality at 400 ppm: 0%
[12]
  mortality at 24 ppm: 0%

## FC(F)(F)c1cccc(CCNc2ccnc3cc(Cl)ccc23)c1 [Example 107, 7-chloro-N-[2-[3-(trifluoromethyl)phenyl]ethyl]-4-quinolinamine]
[1]
  POWD MDEW: ++ (90-100% control at 400 ppm)
[2]
  RICE BLAST: + (20-89% control at 400 ppm)
[3]
  LEAF RUST: + (20-89% control at 400 ppm)
[4]
  GRAY MOLD: - (0-19% control at 400 ppm)
[5]
  DOWN MDEW: +++ (90-100% control at 100 ppm)
[6]
  LEAF SPOT: - (0-19% control at 400 ppm)
[7]
  APPL SCAB: - (0-19% control at 400 ppm)
[8]
  LEAF BLOT: - (0-19% control at 400 ppm)
[9]; SM & MA RATE 200 PPM
  mortality at 200 ppm: 0%
[9]
  mortality at 400 ppm: 0%
[10]; [13]
  mortality at 200 ppm: 0%
[10]; percent mortality, SAW
  mortality at 400 ppm: 0%
[11]; SM & MA RATE 200 PPM
  mortality at 200 ppm: 0%
[11]
  mortality at 400 ppm: 0%
[12]; CRW RATE 12.00 PPM
  mortality at 12 ppm: 0%
[12]
  mortality at 24 ppm: 0%

## Fc1cccc2c(NCCc3cccc(Br)c3)ccnc12 [Example 108, N-[2-(3-bromophenyl)ethyl]-8-fluoro-4-quinolinamine]
[1]
  POWD MDEW: + (20-89% control at 400 ppm)
[2]
  RICE BLAST: + (20-89% control at 400 ppm)
[3]
  LEAF RUST: ++ (90-100% control at 400 ppm)
[4]
  GRAY MOLD: - (0-19% control at 400 ppm)
[5]
  DOWN MDEW: + (20-89% control at 400 ppm)
[6]
  LEAF SPOT: - (0-19% control at 400 ppm)
[7]
  APPL SCAB: - (0-19% control at 400 ppm)
[8]
  LEAF BLOT: +++ (90-100% control at 100 ppm)
[9]; SM & MA RATE 200 PPM
  mortality at 200 ppm: 0%
[10]; [13]
  mortality at 200 ppm: 0%
[11]; SM & MA RATE 200 PPM
  mortality at 200 ppm: 0%
[12]; CRW RATE 12.00 PPM
  mortality at 12 ppm: 0%

## CC(C)(C)c1ccc(CCNc2ccnc3c(F)cccc23)cc1 [Example 111, N-[2-[4-(t-butyl)phenyl]ethyl]--8-fluoro-4-quinolinamine]
[1]
  POWD MDEW: + (20-89% control at 400 ppm)
[2]
  RICE BLAST: ++ (90-100% control at 400 ppm)
[2]; summary statement in the description
  activity against rice blast: particularly excellent activity
[3]
  LEAF RUST: +++ (90-100% control at 100 ppm)
[4]
  GRAY MOLD: - (0-19% control at 400 ppm)
[5]
  DOWN MDEW: +++ (90-100% control at 100 ppm)
[6]
  LEAF SPOT: - (0-19% control at 400 ppm)
[7]
  APPL SCAB: - (0-19% control at 400 ppm)
[8]
  LEAF BLOT: +++ (90-100% control at 100 ppm)
[9]; SM & MA RATE 200 PPM
  mortality at 200 ppm: 20%
[9]
  mortality at 400 ppm: 20%
[10]; [13]
  mortality at 200 ppm: 90%
[10]; percent mortality, SAW
  mortality at 400 ppm: 80%
[10]
  activity as miticides: particularly excellent activity
[11]; SM & MA RATE 200 PPM
  mortality at 200 ppm: 0%
[11]
  mortality at 400 ppm: 0%
[12]; CRW RATE 12.00 PPM
  mortality at 12 ppm: 0%
[12]
  mortality at 24 ppm: 0%

## Fc1cccc2c(NCCc3ccc(-c4ccccc4)cc3)ccnc12 [Example 113, N-[2-(1,1-biphenyl)-4-yl-ethyl]-8-fluoro-4-quinolinamine]
[1]
  POWD MDEW: + (20-89% control at 400 ppm)
[2]
  RICE BLAST: +++ (90-100% control at 100 ppm)
[3]
  LEAF RUST: +++ (90-100% control at 100 ppm)
[4]
  GRAY MOLD: - (0-19% control at 400 ppm)
[5]
  DOWN MDEW: +++ (90-100% control at 100 ppm)
[6]
  LEAF SPOT: - (0-19% control at 400 ppm)
[7]
  APPL SCAB: - (0-19% control at 400 ppm)
[8]
  LEAF BLOT: +++ (90-100% control at 100 ppm)
[9]; SM & MA RATE 200 PPM
  mortality at 200 ppm: 100%
[9]
  mortality at 400 ppm: 70%
[10]; [13]
  mortality at 200 ppm: 40%
[10]; percent mortality, SAW
  mortality at 400 ppm: 0%
[11]; SM & MA RATE 200 PPM
  mortality at 200 ppm: 0%
[11]
  mortality at 400 ppm: 0%
[12]; CRW RATE 12.00 PPM
  mortality at 12 ppm: 0%
[12]
  mortality at 24 ppm: 100%

## Fc1cccc2c(NCCc3ccccc3)cc(Cl)nc12 [Example 116, 2-chloro-8-fluoro-N-(2-phenylethyl)-4-quinolinamine]
[1]
  POWD MDEW: - (0-19% control at 400 ppm)
[2]
  RICE BLAST: + (20-89% control at 400 ppm)
[3]
  LEAF RUST: +++ (90-100% control at 100 ppm)
[4]
  GRAY MOLD: - (0-19% control at 400 ppm)
[5]
  DOWN MDEW: +++ (90-100% control at 100 ppm)
[6]
  LEAF SPOT: + (20-89% control at 400 ppm)
[7]
  APPL SCAB: + (20-89% control at 400 ppm)
[8]
  LEAF BLOT: - (0-19% control at 400 ppm)
[9]; SM & MA RATE 200 PPM
  mortality at 200 ppm: 0%
[10]; [13]
  mortality at 200 ppm: 0%
[11]; SM & MA RATE 200 PPM
  mortality at 200 ppm: 0%
[12]; CRW RATE 12.00 PPM
  mortality at 12 ppm: 0%

## O=[N+]([O-])c1ccc(CCNc2ccnc3c(F)cccc23)cc1 [Example 117, 8-fluoro-N-[2-(4-nitrophenyl)ethyl]-4-quinolinamine]
[1]
  POWD MDEW: + (20-89% control at 400 ppm)
[2]
  RICE BLAST: + (20-89% control at 400 ppm)
[3]
  LEAF RUST: + (20-89% control at 400 ppm)
[4]
  GRAY MOLD: - (0-19% control at 400 ppm)
[5]
  DOWN MDEW: +++ (90-100% control at 100 ppm)
[6]
  LEAF SPOT: + (20-89% control at 400 ppm)
[7]
  APPL SCAB: - (0-19% control at 400 ppm)
[8]
  LEAF BLOT: - (0-19% control at 400 ppm)
[9]; SM & MA RATE 200 PPM
  mortality at 200 ppm: 0%
  SAW RESULTS %: 0%
[10]; [13]
  mortality at 200 ppm: 0%
  SM RESULTS %: 0%
[11]; SM & MA RATE 200 PPM
  mortality at 200 ppm: 0%
  MA RESULTS %: 0%
[12]; CRW RATE 12.00 PPM
  CRW RESULTS %: 0%
  mortality at 12 ppm: 0%

## Fc1cccc2c(NCCc3c(Cl)cccc3Cl)ccnc12 [Example 118, N-[2-(2,6-dichlorophenyl)ethyl]-8-fluoro-4-quinolinamine]
[1]
  POWD MDEW: - (0-19% control at 400 ppm)
[2]
  RICE BLAST: + (20-89% control at 400 ppm)
[3]
  LEAF RUST: - (0-19% control at 400 ppm)
[4]
  GRAY MOLD: - (0-19% control at 400 ppm)
[5]
  DOWN MDEW: - (0-19% control at 400 ppm)
[6]
  LEAF SPOT: - (0-19% control at 400 ppm)
[7]
  APPL SCAB: - (0-19% control at 400 ppm)
[8]
  LEAF BLOT: - (0-19% control at 400 ppm)
[9]; SM & MA RATE 200 PPM
  mortality at 200 ppm: 0%
[10]; [13]
  mortality at 200 ppm: 0%
[11]; SM & MA RATE 200 PPM
  mortality at 200 ppm: 0%
[12]; CRW RATE 12.00 PPM
  mortality at 12 ppm: 0%
